Reference: US7666843B2, “Methods and compositions for treatment of neurological disorder” (Children's Medical Center Corporation, priority 2002, dated 2010)
“Also recorded” adds a separate entry of the source.

What was measured:
[1] = system: goldfish retinal ganglion cells; test: Goldfish retinal ganglion cell culture, axon outgrowth bioassay; format: cell-based; conditions: goldfish RGCs; for effect on axon growth induced by inosine: 2-DG 1 mM; for axon outgrowth in response to glucose/mannose analogs: analog alone (L-enantiomers 100 μM, D-glucosamine 25 μM, 2-deoxy-D-glucose 1 mM), FIG. 8a; for effect on glucose-induced axon outgrowth: glucose 10 μM (50 μM with late fraction), dBcAMP 1 mM, 3-O-MG 100:1, 2-DG 1 mM; for effect on axon growth induced by VE<3: FIG. 2; for axon outgrowth in response to monosaccharides: sugar alone, 50 or 100 μM, D-configuration, FIG. 7a; for axon outgrowth, extracellular 6-phosphate: FIG. 8f
Experimental: Goldfish retinal ganglion cells are prepared as described in PCT application serial no. PCT/US98/03001, the contents of which are incorporated herein by reference, and contacted with a hexose derivative such as mannose. The ability of the hexose derivative to stimulate axonal outgrowth from the goldfish retinal ganglion cells is monitored as described in PCT application serial no. PCT/US98/03001.
Goldfish retinal ganglion cell cultures. Mammalian AF-1 was initially characterized in bioassays using dissociated goldfish retinal ganglion cells (RGCs). In brief, Comet variety goldfish (Mt. Parnell Fisheries, PA) were dark-adapted, cooled to 4° C., and killed by cervical transection. Retinas were dissected and dissociated by incubation in papain followed by a series of trituration steps that result in an RGC-enriched cell suspension (Schwartz & Agronoff,; Schwalb et al., 1995). Approximately 500 RGCs per well were plated together with the experimental samples to be tested in defined, serum-free media containing Leibovitz' L15 media (Gibco BRL) plus N1 and N2 supplements (Bottenstein, Saito), antioxidants, and bovine serum albumin as described in detail elsewhere (Schwalb et al., 1995). In each experiment, 4 wells of each sample were distributed in 24-well plates in a blinded fashion so that the person evaluating axon outgrowth was unaware of the type of sample present in each well. Experiments included a positive control (previously validated goldfish AF-1 or inosine) and a negative control (defined media alone), likewise distributed on the plate in quadruplicate in a blinded fashion. After 6 days in culture at 21° C., axon outgrowth, operationally defined as the percent of RGCs that extended an axon≧5 cell diameters in length, was evaluated in approximately 150 consecutively encountered RGCs per well. […] Data are presented as normalized means ± SEM. All experiments were repeated at least 3 times.

[2] = system: rat retinal ganglion cells; test: Rat retinal ganglion cell culture, axon outgrowth; format: cell-based; conditions: rat RGCs; for axon outgrowth in the presence of forskolin: with forskolin, compared to forskolin alone, glucose up to 5 mM, mannose-6-phosphate up to 10 mM, FIG. 9a, 9c
Excerpt: Rat retinal ganglion cell cultures. Retinal ganglion cells were identified by retrograde labeling with Fluorogold (FG: Fluorochrome, Inc.). […] After allowing 7 days for FG to be retrogradely transported up the optic nerve, rats were killed, eyes were removed, and the retinas dissected. Retinas were dissociated with papain treatment followed by trituration. Mixed cultures containing 100-150 FG-labeled RGCs per well were maintained in 24 well plates in a defined, serum-free media (Minimal Essential Media containing NaHCO3,) at 37° C. at 5% CO2 for 3 days.

[3] = forskolin 10 μM, Rp-cAMPs 100 μM, MH 10 mM
[4] = 6-TG 20 μM, NBTI 20 μM, forskolin 10 μM, Sp-cAMPs 150 μM, Rp-cAMPs 100 μM, H89 5 μM, FIG. 2, 4

Compound: O=CC[C@@H](O)[C@H](O)[C@H](O)CO [2-deoxy-D-glucose]
- effect on axon growth induced by inosine ([1]; 6-TG 20 μM, NBTI 20 μM, listed as 2-DG): blocked the effects of both glucose and inosine; also recorded: also blocks the effect of inosine
- axon outgrowth in response to glucose/mannose analogs [1]: ineffective; also recorded: No activity
- effect on glucose-induced axon outgrowth ([1]; forskolin 10 μM, Rp-cAMPs 100 μM, MH 10 mM, listed as 2-DG): blocked the effects of both glucose and inosine; also recorded: does block the effect of glucose

Compound: CO[C@@H]([C@H](O)[C@H](O)CO)[C@@H](O)C=O [3-O-methyl-D-glucose]
- axon outgrowth in response to glucose/mannose analogs [1]: ineffective; also recorded: No activity
- effect on glucose-induced axon outgrowth [1, 3]: fails to block the effect of glucose

Compound: Nc1nc2nc[nH]c2c(=S)[nH]1 [6-TG, 6-thioguanine]
- effect on axon growth induced by inosine ([1]; 6-TG 20 μM, NBTI 20 μM): only partially blocked; also recorded: only partially inhibited
- effect on axon growth induced by AF-1 [1, 4]: below baseline levels
- effect on axon growth induced by VE<3 ([1]; 6-TG 20 μM, NBTI 20 μM): below baseline levels; also recorded: inhibited completely
- effect on growth induced by VE<3 plus forskolin or Sp-cAMPs ([2]; 6-TG, FIG. 3a): reduced growth; also recorded: strongly inhibited

Compound: O=C[C@H](O)[C@H](O)[C@H](O)[C@H](O)CO [D-allose]
- axon outgrowth in response to monosaccharides [1]: failed to stimulate outgrowth

Compound: O=C[C@@H](O)[C@H](O)[C@H](O)[C@H](O)CO [D-altrose]
- axon outgrowth in response to monosaccharides [1]: failed to stimulate outgrowth

Compound: O=C[C@H](O)[C@@H](O)[C@@H](O)[C@H](O)CO [D-galactose]
- axon outgrowth in response to monosaccharides [1]: failed to stimulate outgrowth

Compound: N[C@H]1C(O)O[C@H](CO)[C@@H](O)[C@@H]1O (stereo partly drawn) [D-glucosamine]
- axon outgrowth in response to glucose/mannose analogs [1]: strongly active
- axon outgrowth in the presence of forskolin [2]: did not respond

Compound: O=C[C@H](O)[C@@H](O)[C@H](O)[C@H](O)COP(=O)(O)O [D-glucose-6-phosphate]
- axon outgrowth, extracellular 6-phosphate ([1]; 100 μM): modest amount of outgrowth
- axon outgrowth, extracellular 6-phosphate ([1]; 1 mM): appreciable growth
- axon outgrowth in response to glucose/mannose analogs [1]: relatively modest but statistically significant amount of outgrowth
- axon outgrowth in response to glucose/mannose analogs ([1]; listed as D-glc-6-P): small but statistically significant level of outgrowth

Compound: O=C[C@H](O)[C@H](O)[C@@H](O)[C@H](O)CO [D-gulose]
- axon outgrowth in response to monosaccharides [1]: failed to stimulate outgrowth
- axon outgrowth in the presence of forskolin [2]: some activity

Compound: N[C@@H]1C(O)O[C@H](CO)[C@@H](O)[C@@H]1O (stereo partly drawn) [D-mannosamine]
- axon outgrowth in response to glucose/mannose analogs [1]: ineffective

Compound: O=C[C@@H](O)[C@@H](O)[C@H](O)[C@H](O)COP(=O)(O)O [D-mannose-6-phosphate]
- axon outgrowth, extracellular 6-phosphate ([1]; 100 μM): modest amount of outgrowth
- axon outgrowth, extracellular 6-phosphate ([1]; 1 mM): appreciable growth
- axon outgrowth in response to glucose/mannose analogs [1]: relatively modest but statistically significant amount of outgrowth
- axon outgrowth in response to glucose/mannose analogs ([1]; listed as D-man-6-P): small but statistically significant level of outgrowth
- axon outgrowth in the presence of forskolin [2]: did not respond

Compound: O=C[C@@H](O)[C@@H](O)[C@@H](O)[C@H](O)CO [D-talose]
- axon outgrowth in response to monosaccharides [1]: failed to stimulate outgrowth

Compound: O=S(=O)(NCCNC/C=C/c1ccc(Br)cc1)c1cccc2cnccc12 [H89]
- effect on axon growth induced by AF-1 [1, 4]: not diminished
- effect on axon growth induced by AF-1 ([1]; 6-TG 20 μM, NBTI 20 μM, forskolin 10 μM, Sp-cAMPs 150 μM, Rp-cAMPs 100 μM, H89 5 μM, FIG. 2, 4, listed as H-89): did not reduce AF-1 induced growth
- effect on axon growth induced by AF-1 ([1]; H89 20 μM, FIG. 4): diminished the effect of AF-1; also recorded: higher concentrations of H89 (20 μM) did

Compound: CCCCCCOC(=O)[C@]1(O)C[C@@H]2O[C@@]1(C)n1c3ccccc3c3c4c(c5c6ccccc6n2c5c31)C(=O)NC4 [KT5720]
- effect on mannose-induced axon outgrowth ([1]; KT5720 1 μM, MH 10 mM, dBcAMP, late fraction with 50 μM mannose): did not diminish the effect of mannose; also recorded: little effect on mannose-induced growth
- effect on mannose-induced axon outgrowth ([1]; KT5720 10 μM, FIG. 7f): only a slight effect

Compound: O=C[C@H](O)[C@H](O)[C@@H](O)[C@@H](O)CO [L-mannose]
- axon outgrowth in response to glucose/mannose analogs [1]: completely inactive; also recorded: inactivity
- axon outgrowth in the presence of forskolin [2]: inactivity

Compound: O=[N+]([O-])c1ccc(CSc2ncnc3c2ncn3[C@@H]2O[C@H](CO)[C@@H](O)[C@H]2O)cc1 [NBTI, 4-(nitrobenzyl-6-thioinosine)]
- effect on axon growth induced by inosine ([1]; 6-TG 20 μM, NBTI 20 μM): effectively blocked; also recorded: blocked completely
- effect on axon growth induced by AF-1 [1, 4]: very little effect
- effect on axon growth induced by VE<3 ([1]; 6-TG 20 μM, NBTI 20 μM): very little effect; also recorded: not affected

Compound: Nc1ncnc2c1ncn2[C@@H]1O[C@@H]2CO[P@@](O)(=S)O[C@H]2[C@H]1O [Rp-cAMPs]
- effect on axon growth induced by AF-1 [1, 4]: not diminished
- effect on axon growth induced by AF-1 ([1]; 6-TG 20 μM, NBTI 20 μM, forskolin 10 μM, Sp-cAMPs 150 μM, Rp-cAMPs 100 μM, H89 5 μM, FIG. 2, 4, listed as Rp-cAMP-s): did not reduce AF-1 induced growth
- block of glucose-induced outgrowth ([1]; Rp-cAMPs 1 mM): 48%
- effect on glucose-induced axon outgrowth [1, 3]: no effect on glucose-induced outgrowth

Compound: CC(=O)N[C@H]1C(O)O[C@H](CO)[C@@H](O)[C@@H]1O (some centres unmarked) [acetylglucosamine, N-acetyl-glucosamine]
- axon outgrowth in response to glucose/mannose analogs [1]: ineffective
- axon outgrowth in response to glucose/mannose analogs ([1]; listed as N-acetyl-glucosamine): No activity

Compound: O=C(CO)[C@@H](O)[C@H](O)[C@H](O)CO [fructose]
- axon outgrowth in response to monosaccharides [1]: failed to stimulate outgrowth

Compound: C[C@H](O)[C@@H](O)[C@@H](O)[C@H](O)C=O [fucose, L-fucose]
- axon outgrowth in response to glucose/mannose analogs [1]: ineffective
- axon outgrowth in response to glucose/mannose analogs ([1]; listed as L-fucose): No activity

Compound: COC(=O)C(C)=O [methyl pyruvate]
- effect on outgrowth of adding energy substrate to the media ([1]; 5 mM): had no effect

Compound: CO[C@H]1O[C@H](CO)[C@@H](O)[C@H](O)[C@H]1O [methyl-α-D-glucopyranoside]
- axon outgrowth in response to glucose/mannose analogs [1]: ineffective
- axon outgrowth in response to glucose/mannose analogs ([1]; listed as methyl-α-glucose pyranose): No activity

Compound: CO[C@@H]1O[C@H](CO)[C@@H](O)[C@H](O)[C@H]1O [methyl-β-D-glucopyranoside]
- axon outgrowth in response to glucose/mannose analogs [1]: ineffective
- axon outgrowth in response to glucose/mannose analogs ([1]; listed as methyl-β-glucose pyranose): No activity

Compound: O[C@H]1[C@H](O)[C@@H](O)[C@H](O)[C@@H](O)[C@H]1O [myo-inositol]
- axon outgrowth in response to monosaccharides [1]: failed to stimulate outgrowth

Compound: O=C(CO)[C@H](O)[C@@H](O)[C@H](O)CO [sorbose]
- axon outgrowth in response to monosaccharides [1]: failed to stimulate outgrowth
